This is an account of results in patent US8420657B2 (Novartis AG, priority 2008, dated 2013).

The subject of experiment [1] is JAK2-dependent nuclear translocation of STAT5-GFP in U-2 OS osteosarcoma cells. The experiment in a line: STAT5 nuclear translocation assay (Cellomics), rhEpo stimulated U-2 OS STAT5-GFP cells. In kind it is cell-based. The settings on record: Homo sapiens, U2OS; STAT5 translocation pathway. The method, boiled down:
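U-2 OS cells stably expressing STAT5a-GFP and EpoR pre-treated with compound (final 10 μM to 0.003 μM, 0.1% DMSO) for 30 min at 37° C., then stimulated 1 h with 5 U/ml rhEpo. Nuclear-cytoplasmic GFP differential quantified by automated imaging (≥1000 cells/well, Hoechst nuclear mask). IC50 from % translocation normalized to untreated and DMSO-stimulated controls.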

Experiment [2] addresses T1, GST-JAK2(808-1132) (Homo sapiens, UniProt O60674).
T1 construct: GST-JAK2(808-1132); purchased Invitrogen (Carlsbad, USA) #4288
The experiment in a line: JAK2 kinase assay (Caliper mobility shift, LabChip 3000). Type of experiment: biochemical. The method, boiled down: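 Recombinant GST-JAK2(808-1132) kinase domain with FITC-labelled JAK3tide peptide substrate and ATP; 60 min at 30 °C, EDTA stop. Substrate/product ratio read by microfluidic mobility shift; compounds at 8 final concentrations, 10 to 0.003 μM.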

pIC50: −log10 of the molar value. Some results are limits rather than exact numbers.

T1 sequence (O60674 808-1132): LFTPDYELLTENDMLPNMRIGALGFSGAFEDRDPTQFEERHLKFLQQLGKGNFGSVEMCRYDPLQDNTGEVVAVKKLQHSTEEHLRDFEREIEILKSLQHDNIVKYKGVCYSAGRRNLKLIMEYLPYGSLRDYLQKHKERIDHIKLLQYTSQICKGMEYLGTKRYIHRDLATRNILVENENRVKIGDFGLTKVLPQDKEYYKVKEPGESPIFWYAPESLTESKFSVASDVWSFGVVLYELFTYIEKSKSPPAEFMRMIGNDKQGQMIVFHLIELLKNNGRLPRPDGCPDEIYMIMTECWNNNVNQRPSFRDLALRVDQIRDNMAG

`CCN1CCOC[C@@H]1c1ccc(Nc2ncc3ccn(-c4cc(F)c(CN5CCOCC5)c(F)c4)c3n2)cc1` [Example 508, [7-(3,5-Difluoro-4-morpholin-4-ylmethyl-phenyl)-7H-pyrrolo[2,3-d]pyrimidin-2-yl]-[4-((S)-4-ethyl-morpholin-3-yl)-phenyl]-amine]: the figures for the pIC50 in experiment [1] and in experiment [2] were 7.83 and 8.39, respectively.
In the case of `Fc1cc(-n2ccc3cnc(Nc4ccc(OCC5CCOCC5)nc4)nc32)cc(F)c1CN1CCOCC1` [Example 517, [7-(3,5-Difluoro-4-morpholin-4-ylmethyl-phenyl)-7H-pyrrolo[2,3-d]pyrimidin-2-yl]-[6-(tetrahydro-pyran-4-ylmethoxy)-pyridin-3-yl]-amine], the figures for the pIC50 in experiment [1] and in experiment [2] were 7.16 and not below 8.52, respectively.
Taken in the same sequence, the figures for `Cc1ccc(Nc2ncc3ccn(-c4cc(F)c(CN5CCOCC5)c(F)c4)c3n2)cc1CN1CCN(C)CC1` [Example 331, [7-(3,5-Difluoro-4-morpholin-4-ylmethyl-phenyl)-7H-pyrrolo[2,3-d]pyrimidin-2-yl]-[4-methyl-3-(4-methyl-piperazin-1-ylmethyl)-phenyl]-amine] were 8.55 and not below 8.52.
Taken in the same sequence, the figures for `Fc1cc(-n2ccc3cnc(Nc4ccc([C@H]5CNCCN5)cc4)nc32)cc(F)c1CN1CCOCC1` [Example 474, [7-(3,5-Difluoro-4-morpholin-4-ylmethyl-phenyl)-7H-pyrrolo[2,3-d]pyrimidin-2-yl]-((S)-4-piperazin-2-yl-phenyl)-amine] were 8.07 and not below 8.52.
With `Fc1cc(-n2ccc3cnc(Nc4ccc([C@H]5COCCN5)cc4)nc32)cc(F)c1CN1CCOCC1` [Example 511, [7-(3,5-Difluoro-4-morpholin-4-ylmethyl-phenyl)-7H-pyrrolo[2,3-d]pyrimidin-2-yl]-((S)-4-morpholin-3-yl-phenyl)-amine], the pIC50 in experiment [1] is 8.41; in experiment [2] it was not below 8.52.
Taken in the same sequence, the figures for `O=C(c1cc(Nc2ncc3ccn(-c4cc(F)c(CN5CCOCC5)c(F)c4)c3n2)ccn1)N1CCOC2(COC2)C1` [Example 362, {4-[7-(3,5-Difluoro-4-morpholin-4-ylmethyl-phenyl)-7H-pyrrolo[2,3-d]pyrimidin-2-ylamino]-pyridin-2-yl}-(2,5-dioxa-8-aza-spiro[3.5]non-8-yl)-methanone] were 6.82 and 7.62.
For `COC1CN(Cc2cc(Nc3ncc4ccn(-c5cc(F)c(CN6CCOCC6)c(F)c5)c4n3)ccc2C)C1` [Example 405, [7-(3,5-Difluoro-4-morpholin-4-ylmethyl-phenyl)-7H-pyrrolo[2,3-d]pyrimidin-2-yl]-[3-(3-methoxy-azetidin-1-ylmethyl)-4-methyl-phenyl]-amine] the same measures were 8.49 and not below 8.52.
For `Cc1cc(Nc2ncc3ccn(-c4cc(F)c(CN5CCOCC5)c(F)c4)c3n2)cnc1N1CCNCC1` [Example 487, [7-(3,5-Difluoro-4-morpholin-4-ylmethyl-phenyl)-7H-pyrrolo[2,3-d]pyrimidin-2-yl]-(5-methyl-6-piperazin-1-yl-pyridin-3-yl)-amine] the same measures were 8.24 and not below 8.52.
Regarding `C[C@@H]1CN(Cc2cc(Nc3ncc4ccn(-c5cc(F)c(CN6CCOCC6)c(F)c5)c4n3)ccn2)C[C@H](C)N1` [Example 391, [7-(3,5-Difluoro-4-morpholin-4-ylmethyl-phenyl)-7H-pyrrolo[2,3-d]pyrimidin-2-yl]-[2-(cis-3,5-dimethyl-piperazin-1-ylmethyl)-pyridin-4-yl]-amine], the values for the pIC50 in experiment [1] and in experiment [2] were 6.82 and 8.31, respectively.
Taken in the same sequence, the figures for `Cc1ccc(Nc2ncc3ccn(-c4cc(F)c(CN5CCOCC5)c(F)c4)c3n2)cc1CN1CCN(CCN(C)C)CC1` [Example 398, [7-(3,5-Difluoro-4-morpholin-4-ylmethyl-phenyl)-7H-pyrrolo[2,3-d]pyrimidin-2-yl]-{3-[4-(2-dimethylamino-ethyl)-piperazin-1-ylmethyl]-4-methyl-phenyl}-amine] were 6.61 and not below 8.52.
For `Cc1ccc(Nc2ncc3ccn(-c4cc(F)c(CN5CCOCC5)c(F)c4)c3n2)cc1CN1CCN(C)C(=O)C1` [Example 395, 4-{5-[7-(3,5-Difluoro-4-morpholin-4-ylmethyl-phenyl)-7H-pyrrolo[2,3-d]pyrimidin-2-ylamino]-2-methyl-benzyl}-1-methyl-piperazin-2-one] the same measures were 7.77 and not below 8.52.
Consider `Fc1cc(-n2ccc3cnc(Nc4ccc(CC5CCNCC5)cc4)nc32)cc(F)c1CN1CCOCC1` [Example 383, [7-(3,5-Difluoro-4-morpholin-4-ylmethyl-phenyl)-7H-pyrrolo[2,3-d]pyrimidin-2-yl]-(4-piperidin-4-ylmethyl-phenyl)-amine], for which the pIC50 is 8.21 in experiment [1] and 8.29 in experiment [2].
For `CN(C)CCN1CCN(c2ccc(Nc3ncc4ccn(-c5cc(F)c(CN6CCOCC6)c(F)c5)c4n3)cn2)CC1` [Example 465, [7-(3,5-Difluoro-4-morpholin-4-ylmethyl-phenyl)-7H-pyrrolo[2,3-d]pyrimidin-2-yl]-{6-[4-(2-dimethylamino-ethyl)-piperazin-1-yl]-pyridin-3-yl}-amine] the same measures were 8.49 and not below 8.52.
For `Fc1cc(-n2ccc3cnc(Nc4ccc(C5CCNCC5)nc4)nc32)cc(F)c1CN1CCOCC1` [Example 501, [7-(3,5-Difluoro-4-morpholin-4-ylmethyl-phenyl)-7H-pyrrolo[2,3-d]pyrimidin-2-yl]-(1,2′,3′,4′,5′,6′-hexahydro-[2,4′]bipyridinyl-5-yl)-amine] the same measures were 7.42 and not below 8.52.
Taken in the same sequence, the figures for `Cc1ccc(Nc2ncc3ccn(-c4cc(F)c(CN5CCS(=O)(=O)CC5)c(F)c4)c3n2)cc1CN1CC(O)C1` [Example 423, 1-(5-{7-[4-(1,1-Dioxido-thiomorpholin-4-ylmethyl)-3,5-difluoro-phenyl]-7H-pyrrolo[2,3-d]pyrimidin-2-ylamino}-2-methyl-benzyl)-azetidin-3-ol] were 8.23 and not below 8.52.
Turning to `OC1CN(Cc2ccc(Nc3ncc4ccn(-c5cc(F)c(CN6CCOCC6)c(F)c5)c4n3)cc2)C1` [Example 479, 1-{4-[7-(3,5-Difluoro-4-morpholin-4-ylmethyl-phenyl)-7H-pyrrolo[2,3-d]pyrimidin-2-ylamino]-benzyl}-azetidin-3-ol], the figures for the pIC50 in experiment [1] and in experiment [2] were 7.82 and 8.46, respectively.
Turning to `Fc1cc(-n2ccc3cnc(Nc4ccc(OC5CCOCC5)nc4)nc32)cc(F)c1CN1CCOCC1` [Example 515, [7-(3,5-Difluoro-4-morpholin-4-ylmethyl-phenyl)-7H-pyrrolo[2,3-d]pyrimidin-2-yl]-[6-(tetrahydro-pyran-4-yloxy)-pyridin-3-yl]-amine], the pIC50 is 7.27 in experiment [1] and not below 8.52 in experiment [2].
Taken in the same sequence, the figures for `CN1CCN(Cc2cc(Nc3ncc4ccn(-c5cc(F)c(CN6CCOCC6)c(F)c5)c4n3)ccn2)CC1` [Example 384, [7-(3,5-Difluoro-4-morpholin-4-ylmethyl-phenyl)-7H-pyrrolo[2,3-d]pyrimidin-2-yl]-[2-(4-methyl-piperazin-1-ylmethyl)-pyridin-4-yl]-amine] were 7.92 and not below 8.52.
For `COC1CN(Cc2c(F)cc(-n3ccc4cnc(Nc5ccc(C)c(CN6CCNCC6)c5)nc43)cc2F)C1` [Example 482, {7-[3,5-Difluoro-4-(3-methoxy-azetidin-1-ylmethyl)-phenyl]-7H-pyrrolo[2,3-d]pyrimidin-2-yl}-(4-methyl-3-piperazin-1-ylmethyl-phenyl)-amine] the same measures were 6.82 and not below 8.52.
Taken in the same sequence, the figures for `Cc1cc(Nc2ncc3ccn(-c4cc(F)c(CN5CCOCC5)c(F)c4)c3n2)cnc1N1CCNCC1=O` [Example 495, 1-{5-[7-(3,5-Difluoro-4-morpholin-4-ylmethyl-phenyl)-7H-pyrrolo[2,3-d]pyrimidin-2-ylamino]-3-methyl-pyridin-2-yl}-piperazin-2-one] were 7.29 and not below 8.52.
Consider `C[C@@H]1CN(Cc2c(F)cc(-n3ccc4cnc(Nc5ccc(N6CCNCC6)nc5)nc43)cc2F)C[C@H](C)O1` [Example 454, {7-[4-(cis-2,6-dimethyl-morpholin-4-ylmethyl)-3,5-difluoro-phenyl]-7H-pyrrolo[2,3-d]pyrimidin-2-yl}-(6-piperazin-1-yl-pyridin-3-yl)-amine], for which the pIC50 in experiment [1] is 7.27; in experiment [2] it was 8.35.
Taken in the same sequence, the figures for `CC1(C)NCCN(c2ccc(Nc3ncc4ccn(-c5cc(F)c(CN6CCOCC6)c(F)c5)c4n3)cn2)C1=O` [Example 492, 1-{5-[7-(3,5-Difluoro-4-morpholin-4-ylmethyl-phenyl)-7H-pyrrolo[2,3-d]pyrimidin-2-ylamino]-pyridin-2-yl}-3,3-dimethyl-piperazin-2-one] were 7.26 and 8.66.
Taken in the same sequence, the figures for `Fc1cc(-n2ccc3cnc(Nc4cccc([C@H]5COCCN5)c4)nc32)cc(F)c1CN1CCOCC1` [Example 507, [7-(3,5-Difluoro-4-morpholin-4-ylmethyl-phenyl)-7H-pyrrolo[2,3-d]pyrimidin-2-yl]-((S)-3-morpholin-3-yl-phenyl)-amine] were 9.70 and more than 8.52.
With `C[C@@H]1CN(C(=O)c2cc(Nc3ncc4ccn(-c5cc(F)c(CN6CCOCC6)c(F)c5)c4n3)ccn2)C[C@H](C)N1` [Example 371, {4-[7-(3,5-Difluoro-4-morpholin-4-ylmethyl-phenyl)-7H-pyrrolo[2,3-d]pyrimidin-2-ylamino]-pyridin-2-yl}-(cis-3,5-dimethyl-piperazin-1-yl)-methanone], the values for the pIC50 in experiment [1] and in experiment [2] were 6.87 and 7.89, respectively.

As usually defined, the pIC50 is −log10 of the IC50, conventionally taken in molar units.
